How the values were obtained:
Test in all cases: cells
Parameters in all cases: species or system NCI human tumour cell line panel
NCI-H226 = details: Homo sapiens, NCI-H226; growth inhibition (GI%), single dose
HOP-92 = details: Homo sapiens, HOP-92; growth inhibition (GI%), single dose
UACC-62 = details: Homo sapiens, UACC-62; growth inhibition (GI%), single dose
MDA-MB-435 = details: Homo sapiens, MDA-MB-435; growth inhibition (GI%), single dose
BT-549 = details: Homo sapiens, BT-549; growth inhibition (GI%), single dose
SF-295 = details: Homo sapiens, SF-295; growth inhibition (GI%), single dose
LOX IMVI = details: Homo sapiens, LOX IMVI; growth inhibition (GI%), single dose
SN12C = details: Homo sapiens, SN12C; growth inhibition (GI%), single dose
KM12 = details: Homo sapiens, KM12; growth inhibition (GI%), single dose
SK-OV-3 = details: Homo sapiens, SK-OV-3; growth inhibition (GI%), single dose
HCT-15 = details: Homo sapiens, HCT-15; growth inhibition (GI%), single dose
SF-268 = details: Homo sapiens, SF-268; growth inhibition (GI%), single dose
UACC-257 = details: Homo sapiens, UACC-257; growth inhibition (GI%), single dose
M14 = details: Homo sapiens, M14; growth inhibition (GI%), single dose
HOP-62 = details: Homo sapiens, HOP-62; growth inhibition (GI%), single dose
SR = details: Homo sapiens, SR; growth inhibition (GI%), single dose
OVCAR-5 = details: Homo sapiens, OVCAR-5; growth inhibition (GI%), single dose
A498 = details: Homo sapiens, A498; growth inhibition (GI%), single dose
HL-60(TB) = details: Homo sapiens, HL-60; growth inhibition (GI%), single dose
NCI-H322M = details: Homo sapiens, NCI-H322M; growth inhibition (GI%), single dose
HS 578T = details: Homo sapiens, Hs-578T; growth inhibition (GI%), single dose
A549/ATCC = details: Homo sapiens, A549; growth inhibition (GI%), single dose
NCI-H522 = details: Homo sapiens, NCI-H522; growth inhibition (GI%), single dose
RPMI-8226 = details: Homo sapiens, RPMI-8226; growth inhibition (GI%), single dose
UO-31 = details: Homo sapiens, UO-31; growth inhibition (GI%), single dose
EKVX = details: Homo sapiens, EKVX; growth inhibition (GI%), single dose
TK-10 = details: Homo sapiens, TK-10; growth inhibition (GI%), single dose
MCF7 = details: Homo sapiens, MCF7; growth inhibition (GI%), single dose
U251 = details: Homo sapiens, U-251; growth inhibition (GI%), single dose
MOLT-4 = details: Homo sapiens, MOLT-4; growth inhibition (GI%), single dose

N#Cc1nnn(-c2ccc(S(N)(=O)=O)cc2)c1NC(=O)CCl [compound 5, 5]
inhibition at 10 µM (NCI-H226): 4.6%
inhibition at 10 µM (HOP-92): 3.9%
inhibition at 10 µM (UACC-62): 3.4%
inhibition at 10 µM (MDA-MB-435): 0.4%
inhibition at 10 µM (BT-549): 3.1%
inhibition at 10 µM (SF-295): 1.8%
inhibition at 10 µM (LOX IMVI): 5.5%
inhibition at 10 µM (SN12C): 11.8%
inhibition at 10 µM (KM12): 5.2%
inhibition at 10 µM (SK-OV-3): 3.5%
inhibition at 10 µM (HCT-15): 4.1%
inhibition at 10 µM (SF-268): 2.5%
inhibition at 10 µM (UACC-257): 11.1%
inhibition at 10 µM (M14): 4.7%
inhibition at 10 µM (HOP-62): 7.9%
inhibition at 10 µM (SR): 4.1%
inhibition at 10 µM (OVCAR-5): 3.4%
inhibition at 10 µM (A498): 8.6%
inhibition at 10 µM (HL-60(TB)): 22.5%
inhibition at 10 µM (NCI-H322M): 6.6%
inhibition at 10 µM (HS 578T): 99.8%
inhibition at 10 µM (A549/ATCC): 7.2%
inhibition at 10 µM (NCI-H522): 5.1%
inhibition at 10 µM (RPMI-8226): 8.7%
inhibition at 10 µM (UO-31): 13.5%
inhibition at 10 µM (EKVX): 8.6%
inhibition at 10 µM (TK-10): 3.6%
inhibition at 10 µM (MCF7): 9.1%
inhibition at 10 µM (U251): 7.7%
inhibition at 10 µM (MOLT-4): 7.7%

Source: publication PMC6171417, “Carbonic anhydrase inhibition with a series of novel benzenesulfonamide-triazole conjugates” (Journal of Enzyme Inhibition and Medicinal Chemistry, 2018)
